{"source": "patent US20010051646A1", "about": "“Method for the improvement of islet signaling in diabetes mellitus and for its prevention” (priority 2000, published 2001)", "assay_type_in_all_cases": "in vivo, rat", "key": {"Male Zucker fa/fa rats [1]": {"system": "Male Zucker fa/fa rats", "test": "Repeated once-daily oral dosing: morning blood glucose and plasma insulin", "method": "The parameters monitored were morning blood glucose and plasma insulin levels. In a day-night profile, glycemia and insulinaemia were monitored from day 16 to day 17. An OGTT was performed finally on day 21 to monitor blood glucose and plasma insulin kinetics to assess changes in glucose tolerance. Glibenclamide (DAB 1996; R011150/33372) was donated by Berlin-Chemie (Berlin, Germany). Male Zucker (fa/fa) rats of the body weight class of 300 g were purchased from Charles River (Sulzfeld, Germany).\nHousing Conditions: Animals were kept single-housed under conventional conditions with controlled temperature (22±2° C.) on a 12/12 hours light/dark cycle (light on at 06:00 a.m.). Standard pellets (ssniff®, Soest, Germany) and tap water acidified with HCl were allowed ad libitum.\nCatheterization of Carotid Artery: After one week of adaptation carotid catheters were implanted in the rats under general anesthesia (injection of 0.25 ml/kg i.p. Rompun® [2%], Bayer, Germany) and 0.5 ml/kg i.p. Velonarkon® (Arzneimittelwerk Dresden, Germany). The animals were allowed to recover for one week. The catheter was flushed with heparin-saline (100 IU/ml) three times per week.\nThereafter, the non-diabetic Wistar rats were treated orally once daily with RP (5 mg/kg b.w.) or TP (21.61 mg/kg b.w.) and the diabetic Zucker rats were treated orally once daily with RP (1 mg/kg b.w.) or TP (21.61 mg/kg b.w.) for 21 days at 05.00 p.m. (before regular food intake in the dark phase). The controls were given 1% cellulose solution orally (5 ml/kg). Blood samples were taken every morning at 07.30 a.m. from tail veins for measurement of blood glucose and plasma insulin. The last blood samples of this part of the program were taken at 07.30 a. m. on the 15th day to measure blood glucose and plasma insulin. The oral drug therapy was continued for one week. Recording the day-night profile under the above therapy blood glucose (Δt=3 h) and plasma insulin (Δt=3-6 h) were monitored from day 16 (at 05.00 p.m. beginning) to day 17 (at 02.00 p.m. end).\nBlood glucose: Glucose levels were measured using the glucose oxidase procedure (Super G Glukosemeβgerät; Dr. Müller Gerätebau, Freital, Germany).\nPlasma insulin: Insulin concentrations were assayed by the antibody RIA method (LINCO Research, Inc. St. Charles, Mo., USA)."}, "Male Zucker fa/fa rats [2]": {"system": "Male Zucker fa/fa rats", "test": "Day-night profile of glycemia and insulinemia, day 16 to day 17 of treatment", "method": "The parameters monitored were morning blood glucose and plasma insulin levels. […] An OGTT was performed finally on day 21 to monitor blood glucose and plasma insulin kinetics to assess changes in glucose tolerance. Glibenclamide (DAB 1996; R011150/33372) was donated by Berlin-Chemie (Berlin, Germany). Male Zucker (fa/fa) rats of the body weight class of 300 g were purchased from Charles River (Sulzfeld, Germany). […] Thereafter, the non-diabetic Wistar rats were treated orally once daily with RP (5 mg/kg b.w.) or TP (21.61 mg/kg b.w.) and the diabetic Zucker rats were treated orally once daily with RP (1 mg/kg b.w.) or TP (21.61 mg/kg b.w.) for 21 days at 05.00 p.m. (before regular food intake in the dark phase). The controls were given 1% cellulose solution orally (5 ml/kg). […] The oral drug therapy was continued for one week. […] Blood glucose: Glucose levels were measured using the glucose oxidase procedure (Super G Glukosemeβgerät; Dr. Müller Gerätebau, Freital, Germany). Plasma insulin: Insulin concentrations were assayed by the antibody RIA method (LINCO Research, Inc. St. Charles, Mo., USA)."}, "Male Zucker fa/fa rats [3]": {"system": "Male Zucker fa/fa rats", "test": "OGTT after 21 days treatment: blood glucose and plasma insulin", "method": "The parameters monitored were morning blood glucose and plasma insulin levels. […] An OGTT was performed finally on day 21 to monitor blood glucose and plasma insulin kinetics to assess changes in glucose tolerance. Glibenclamide (DAB 1996; R011150/33372) was donated by Berlin-Chemie (Berlin, Germany). Male Zucker (fa/fa) rats of the body weight class of 300 g were purchased from Charles River (Sulzfeld, Germany). Repeated Dosing: 30 male non-diabetic Wistar and 30 male diabetic Zucker rats were randomized to RP (Reference Product: glibenclamide)-, TP- (jest Product: […] Thereafter, the non-diabetic Wistar rats were treated orally once daily with RP (5 mg/kg b.w.) or TP (21.61 mg/kg b.w.) and the diabetic Zucker rats were treated orally once daily with RP (1 mg/kg b.w.) or TP (21.61 mg/kg b.w.) for 21 days at 05.00 p.m. (before regular food intake in the dark phase). The controls were given 1% cellulose solution orally (5 ml/kg). […] The oral drug therapy was continued for one week. […] OGTT: A final OGTT was performed on day 21 with blood sampling from the tail vein. […] The latter were immediately centrifuged and the plasma fractions were stored at −20 ° C. for insulin analysis. Blood glucose: Glucose levels were measured using the glucose oxidase procedure (Super G Glukosemeβgerät; Dr. Müller Gerätebau, Freital, Germany). Plasma insulin: Insulin concentrations were assayed by the antibody RIA method (LINCO Research, Inc. St. Charles, Mo., USA)."}}, "data": [{"smiles": "COc1ccc(Cl)cc1C(=O)NCCc1ccc(S(=O)(=O)NC(=O)NC2CCCCC2)cc1", "note": "[glibenclamide, reference compound]", "values": [{"measurement": "Plasma insulin during 14 days in comparison to the control animals", "setting": "Male Zucker fa/fa rats [1]; rat, in vivo", "result": "insulin increase to significantly higher concentrations than in control animals"}, {"measurement": "Increase of morning blood glucose", "setting": "Male Zucker fa/fa rats [1]; within two days of therapy", "result": "about 1.5 mmol/l"}, {"measurement": "Mean blood glucose, day-night profile", "setting": "Male Zucker fa/fa rats [2]; 02.00 p.m. next day, RP 1 mg/kg, TP 21.61 mg/kg orally once daily", "result": "7.34 ± 0.77", "unit": "mmol/L"}, {"measurement": "Plasma insulin, day-night profile", "setting": "Male Zucker fa/fa rats [2]; 02.00 p.m. the next day", "result": "58.3 ± 7.3", "unit": "ng/mL"}, {"measurement": "Plasma insulin, day-night profile", "setting": "Male Zucker fa/fa rats [2]; 05.00 a.m. (maximum)", "result": "76.3 ± 8.6", "unit": "ng/mL"}, {"measurement": "Plasma insulin, day-night profile", "setting": "Male Zucker fa/fa rats [2]; 05.00 p.m., RP 1 mg/kg, TP 21.61 mg/kg orally once daily", "result": "50.0 ± 8.2", "unit": "ng/mL"}, {"measurement": "Plasma insulin, day-night profile", "setting": "Male Zucker fa/fa rats [2]; 08.00 p.m.", "result": "57.3 ± 8.2", "unit": "ng/mL"}, {"measurement": "Mean blood glucose, day-night profile", "setting": "Male Zucker fa/fa rats [2]; 11.00 a.m., RP 1 mg/kg, TP 21.61 mg/kg orally once daily", "result": "7.66 ± 1.22", "unit": "mmol/L"}, {"measurement": "Mean blood glucose, day-night profile", "setting": "Male Zucker fa/fa rats [2]; 11.00 p.m., RP 1 mg/kg, TP 21.61 mg/kg orally once daily", "result": "14.80 ± 1.46", "unit": "mmol/L"}, {"measurement": "Mean blood glucose, day-night profile", "setting": "Male Zucker fa/fa rats [2]; day 16, 05.00 p.m. before drug application, RP 1 mg/kg, TP 21.61 mg/kg orally once daily", "result": "7.96 ± 1.13", "unit": "mmol/L"}, {"measurement": "Increase of insulin output compared to the control", "setting": "Male Zucker fa/fa rats [2]; obese Zucker rat, subchronic treatment", "result": 27, "unit": "%"}, {"measurement": "Glycemia at the last drug application", "setting": "Male Zucker fa/fa rats [3]; 05.00 p.m., night before day 21", "result": "8.81 ± 1.21", "unit": "mmol/L"}, {"measurement": "G-AUC in comparison to the placebo application", "setting": "Male Zucker fa/fa rats [3]; day 21", "result": "increased"}, {"measurement": "Blood glucose during OGTT", "setting": "Male Zucker fa/fa rats [3]; day 21, 50 min", "result": "16.33 ± 0.98", "unit": "mmol/L"}, {"measurement": "Blood glucose during OGTT", "setting": "Male Zucker fa/fa rats [3]; day 21, 80 min", "result": "16.24 ± 1.09", "unit": "mmol/L"}, {"measurement": "Blood glucose during OGTT", "setting": "Male Zucker fa/fa rats [3]; day 21, 100 min", "result": "15.13 ± 0.76", "unit": "mmol/L"}, {"measurement": "Blood glucose during OGTT", "setting": "Male Zucker fa/fa rats [3]; day 21, 120 min", "result": "14.81 ± 0.66", "unit": "mmol/L"}, {"measurement": "Glycemia after overnight fasting (basal, before OGTT)", "setting": "Male Zucker fa/fa rats [3]; day 21, morning (07.30 a. m.)", "result": "4.91 ± 0.37", "unit": "mmol/L"}, {"measurement": "Fasting plasma insulin at the beginning of the OGTT", "setting": "Male Zucker fa/fa rats [3]; day 21, overnight fasting, listed as RP", "result": "~12.5", "unit": "ng/mL"}, {"measurement": "Blood glucose increase after the glucose load", "setting": "Male Zucker fa/fa rats [3]; day 21 OGTT", "result": "about 11 mmol"}, {"measurement": "Plasma insulin after a glucose stimulus", "setting": "Male Zucker fa/fa rats [3]; day 21 OGTT", "result": "remained mostly unchanged"}, {"measurement": "Glucose area under the curve (G-AUC0-120 min)", "setting": "Male Zucker fa/fa rats [3]; day 21 OGTT, CO-group 823±41", "result": "1096 ± 76", "unit": "mmol·min/L"}]}]}
